From ChEMBL document CHEMBL5150038, “Small-Molecule Receptor-Interacting Protein 1 (RIP1) Inhibitors as Therapeutic Agents for Multifaceted Diseases: Current Medicinal Chemistry Insights and Emerging Opportunities” (J Med Chem, 2022)

How the values were obtained:
[1] = Metabolic clearance in rat hepatocyte assessed as clearance measured per 10^6 cells; assay type: ADME, cell-based; details: hepatocytes, read-out: CLH
Hepatocyte = experiment: Metabolic clearance in human hepatocyte assessed as clearance; assay type: ADME, cell-based; details: hepatocytes

hepatocyte CLint [1]: 87 µL/min/1e6 cells | CLH (Hepatocyte): 42 µL/min/mg
SMILES: O=C(c1cnn(Cc2ccccc2)c1)N1CCOc2ccccc2C1
